Where two headings read alike, the source gives them in different places.
Key:
[1] = 15% relative humidity and 23° C.
Protocol: A method of measuring electrostatic nature is a tribogeneration where relative charge on the powdered sample is measured with an electrometer equipped with a Faraday cup (NanoCoulumb Meter, Model 284, Monroe Electronics, USA). Prior to measurement, the charge is generated by strongly vibrating the sample (approximately 3 g) on a dry Petri dish (D=24 cm) for 2 minutes. The charged sample is then transferred to a Faraday cup of the electrometer with a plastic spoon and its charge is measured by an electrometer. After the charge measurement the sample is weighted and the relative charge calculated. All measurements are performed at controlled dry atmosphere conditions (15% relative humidity and 23° C.).

[2] = SEM image, N=200 crystals
Protocol: The shape of crystals is determined by an analysis of an image, taken by the scanning electron microscope (SEM), JEOL JXA840A at magnification 500-2000×. The length/width ratio of the crystal habit is determined by measuring length and width of a representative sample (N=200) of crystals on the image, using the image analyzing software Olympus DP-Soft, v-3.2. The length/width ratio is calculated independently for each crystal. Finally, the number average of the ratio is determined and optionally histogram calculated.

SMILES	chargeab. (chargeability by tribogeneration) [1]	chargeab. (chargeability by tribogeneration) ([1]; listed as 1649)	a (length of crystals) [2]	a:b (length/width ratio, number average) [2]	b (width of crystals) [2]	chargeab. (chargeability by tribogeneration) ([1]; listed as 3913D)
CCCCC1=NC2(CCCC2)C(=O)N1Cc1ccc(-c2ccccc2-c2nnn[nH]2)cc1 [Example 7, 2-n-butyl-4-spirocyclopentane-1-[((2′-tetrazol-5-yl)biphenyl-4-yl)methyl]-2-imidazolin-5-one]	−26.5 ± 6 10^−9 As/g	−26.5±6 10^−9 As/g	21 ± 17 μm	13 ± 9	2.6 ± 1.0 μm	
CCCCC1=NC2(CCCC2)C(=O)N1Cc1ccc(-c2ccccc2-c2nnn[nH]2)cc1 [Example 1, 2-n-butyl-4-spirocyclopentane-1-[((2′-tetrazol-5-yl)biphenyl-4-yl)methyl]-2-imidazolin-5-one]	−33.7 ± 15 10^−9 As/g		14.9 ± 10.1 μm	13 ± 10	1.2 ± 1.4 μm	
CCCCC1=NC2(CCCC2)C(=O)N1Cc1ccc(-c2ccccc2-c2nnn[nH]2)cc1 [Example 6, 2-n-butyl-4-spirocyclopentane-1-[((2′-tetrazol-5-yl)biphenyl-4-yl)methyl]-2-imidazolin-5-one]	−27.9 ± 2.8 10^−9 As/g		32 ± 32 μm	22 ± 18	1.4 ± 0.6 μm	
CCCCC1=NC2(CCCC2)C(=O)N1Cc1ccc(-c2ccccc2-c2nnn[nH]2)cc1 [Example 5, 2-n-butyl-4-spirocyclopentane-1-[((2′-tetrazol-5-yl)biphenyl-4-yl)methyl]-2-imidazolin-5-one]	−17.1 ± 2.9 10^−9 As/g		58 ± 50 μm	9.5 ± 8	6.4 ± 1.2 μm	
CCCCC1=NC2(CCCC2)C(=O)N1Cc1ccc(-c2ccccc2-c2nnn[nH]2)cc1 [Example 4, 2-n-butyl-4-spirocyclopentane-1-[((2′-tetrazol-5-yl)biphenyl-4-yl)methyl]-2-imidazolin-5-one]	−27.5 ± 5.6 10^−9 As/g		130 ± 96 μm	17 ± 12.9	7.9 ± 3.4 μm	
CCCCC1=NC2(CCCC2)C(=O)N1Cc1ccc(-c2ccccc2-c2nnn[nH]2)cc1 [Example 3, 2-n-butyl-4-spirocyclopentane-1-[((2′-tetrazol-5-yl)biphenyl-4-yl)methyl]-2-imidazolin-5-one]	−45.8 ± 4.9 10^−9 As/g		20.7 ± 17.4 μm	23.3 ± 23	1.0 ± 0.5 μm	45.8±4.9 10^−9 As/g
CCCCC1=NC2(CCCC2)C(=O)N1Cc1ccc(-c2ccccc2-c2nnn[nH]2)cc1 [Example 2, 2-n-butyl-4-spirocyclopentane-1-[((2′-tetrazol-5-yl)biphenyl-4-yl)methyl]-2-imidazolin-5-one]	−32 ± 4.6 10^−9 As/g		78 ± 68 μm	13.4 ± 1.9	6.7 ± 2.8 μm	

— patent US20090208573A1, “NOVEL POLYMORPH FORM OF IRBESARTAN” (LEK PHARMACEUTICALS D.D, priority 2004, published 2009)
